“Also recorded” adds a separate entry of the source. Read-outs that look alike come from different tables or passages of the source.
How the values were obtained:
[1] = system: pancreatic adenocarcinoma; assay: Oral squalamine in Stage 4b pancreatic cancer, single subject; type: in vivo, human
Method: A person presented with abdominal discomfort, weight loss, and malaise. After considerable medical consultations a diagnosis of pancreatic adenocarcinoma was made. The subject was treated with chemotherapy and experienced a severe adverse reaction, which included ascites and pleural effusion. […] In August 2013, the subject was evaluated for a clinical trial at TGEN in Arizona, but not admitted due to the extensive cancer evident in the pancreas, liver, and nodes.
In late August 2013, the subject was begun on 50 mg/day, then increased to 100 mg/day after a week. The subject began once monthly cycles of cisplatin and 5-FU. […] The overall level of performance of the individual continues to improve, but the ascites and pleural effusions persist. […] All concurrent chemotherapy has stopped. Squalamine treatment continues.

NHE-3 transporter = details: electrostatic mechanism, epithelial cell; cited from earlier work
[2] = system: intrinsic primary afferent neurons (IPANs) of the colon; assay: Patch-clamp of IPANs of the colon, squalamine applied to lumen, intact epithelium; type: cell-based, mouse; details: 30 μM, brief puff onto lumen/epithelium
Description: In this experiment the outer adventitial layer of the mouse colon is peeled away exposing the IPANs. Individual IPANs within the myenteric plexus of the wall of the colon are patched using a patch-clamp apparatus. These cells represent the major neuronal population that communicate sensory data from the gut. They synapse with the various nerve networks within the gut that influence muscle and secretory activity, as well as connecting with vagal nerve endings. Administration of squalamine at 30 μM to the lumen (applied via a 50 ms “puff” of solution) leads to a very sustained (10 min) burst of electrical activity (FIG. 3).

[3] = cited from earlier work; for oral bioavailability: animals (rodents; mice and dogs)
Parkinson's disease = assay: Oral squalamine in Parkinson's disease with constipation, single subject; type: in vivo, human
Method: A person, in otherwise good health, presented with Parkinson's disease of about 5 yrs duration. They were severely constipated and suffered from frequent episodes of cramping. These GI symptoms were similar to that described in Parkinson's and could not be alleviated medically or through dietary adjustment. Their medications included 5 L-DOPA/DDC caps/day and 1-2 Requip before bedtime. Their neurological status at this time was as follows, as determined about 1 hour after an L-DOPA dosing, a time point when they appear to be repleted with dopamine: • Slow walking with shuffling . . . need to squat intermittently • Articulation poor . . . difficult to understand their speech . . . halting • Use of utensils while eating involved slow, awkward movements • Face seemed a bit mask like; unconsciously made chewing movements • Cognitive function (memory, wit) was less than observed 3 months prior • Balance was unsteady • Mood was depressed • Swallowing noted to be difficult at times • Chewing food was slow • Handwriting was small
Began oral dosing with 200 mg capsule of squalamine on Day 1. Capsule was taken in the AM before breakfast, along with L-DOPA. […] 200 mg cap on day 2 provoked a watery diarrhea at 2 hrs after dosing, but discharge subsided by day 3 dosing. On day 13, subsequent dosing was maintained at 200 mg every other day, with some minor degree of nausea. No watery discharge. At about Day 30 the subject was switched to 100 mg every other day, and remained on this regimen for about 9.5 months.

GLP-1 = GLP-1 release into the blood stream after oral squalamine and lipid/carbohydrate meal (ELISA); type: in vivo, human
Method: Enteroendocrine cells, which contain entreric hormones, are known to respond to a variety of stimuli they contact in the intestinal lumen, and release hormones into the submucosa and subsequently into the bloodstream. In particular, GLP-1, the product of the L-cell, is known to have motility effects on the small intestine that resemble those observed after oral administration of squalamine. In this example, a lipid/carbohydrate meal was administered which is known to provoke the release of GLP-1 into the bloodstream. The GLP-1 response of the GI tract to the meal was compared in the presence or absence of squalamine, with blood levels of GLP-1 measured using an ELISA based immunoassay.
• 1. Subject (BMI: […], no medical illness) was fasted overnight • 2. IV catheter 18 gauge implanted in R […] fossa • 3. Blood samples drawn at 9:30 A, 11 A, 11:30 A, 12:30 P, 1:30 P, 2 P, 2:30, 3, 3:30, 4:30, 5:30 • 4. Empty capsule and water at 10:30 A • 5. Lipid/carbohydrate meal (2 slices of white bread, each with 5.5 gms butter) at 2 P • 6. Blood samples: 2 ml into Becton-Dickenson Protease-inhibited Biomarker tubes; 3 ml into standard red top blood collection tubes. • 7. All samples were immediately spun at 3000 rpm×15 and serum or plasma aliquotted into 1.5 ml eppendorfs and then stored at −80° C. Squalamine Response • 1. Subject rested 3 days and re-evaluated 4 days after the Control response • 2. Fasted overnight • 3. IV catheter implanted • 4. Samples drawn at 10, 11, 11:30, 12:30, 1:30, 2:30, 3, 3:30, 4:30, 5:30 • 5. Squalamine capsule, 200 mg at 10:30 A • 6. Bread and butter, 2 P • 7. Blood samples collected and processed as in the Control study
GLP-1 analyses (Total immunoreactive GLP-1): A Millipore ELISA kit was used (Cat #EZGLP1T-36K).

[4] = system: N-terminally acetylated alpha-synuclein bound to DOPE/DOPS/DOPC vesicles; assay: Displacement of alpha-synuclein from negatively charged vesicles (circular dichroism); type: binding
Method: Alpha-synuclein was mixed with a preparation of vesicles consisting of DOPE (50%), DOPS (30%), DOPC (20%). The concentration of lipid was 2.4 mM; the concentration of N-terminally acetylated alpha-synuclein was 10 μM. The interaction was followed by circular dichoroism. The concentration of squalamine was increased in 40 μM increments. […] At a ratio of lipid to squalamine of 15:1, full displacement of alpha-synuclein was observed. Addition of squalamine to a solution of alpha-synuclein alone had no effect on the circular dichroism spectrum.

Substance: squalamine
- PET/CT scan ([1]; 100 mg/day with monthly cisplatin and 5-FU, February 2014): complete loss of all PET active masses
- cytology of the peritoneal fluid ([1]; 100 mg/day, ongoing): remains negative for abnormal cells
- PET/CT scan ([1]; 50 then 100 mg/day from late August 2013, with monthly cisplatin and 5-FU, early December 2013): dramatic reduction in PET intensity of all previously active cancer
- effect on NHE-3 transporter (NHE-3 transporter): inhibits the NHE-3 transporter
- duration of burst of electrical activity / action potentials [2]: 10 min
- absorption from the gastrointestinal tract ([3]; extensive studies in animals): neither squalamine nor Aminosterol 1436 can be absorbed to any extent
- oral bioavailability [3]: low bioavailability
- oral bioavailability ([3]; listed as squalamine lactate): poorly bioavailable orally
- absorption by the subcutaneous and intraperitoneal routes ([3]; rodents): well absorbed
- watery diarrhea, time after dosing (Parkinson's disease; 200 mg cap on day 2): 2 h
- GI response to first dose (Parkinson's disease; 200 mg capsule Day 1, AM before breakfast, with L-DOPA): No nausea experienced nor watery discharge; also recorded: Passed several moist stools
- Observations (Parkinson's disease; 3 Weeks, 200 mg, from day 13 every other day): Mood seems to have improved; also recorded: Some shaking even after L-DOPA; also recorded: Bowels improved considerably; also recorded: Walking more comfortably, but still uneven; also recorded: Subject feels breathing is easier; also recorded: Articulation much improved
- resolution of constipation (Parkinson's disease; oral squalamine 200 mg regimen): Constipation resolved within several weeks
- Squalamine Response: Clinical (GLP-1; 200 mg capsule at 10:30 A, light headedness 11 A-12:15, nausea 1:45, diarrhea 2 P, 2:20, 2:36, 3:15): Episodes of light headedness; also recorded: Episode of mild nausea; also recorded: Passage of watery diarrhea
- effect on the release of GLP-1 from the small intestine (GLP-1; 200 mg oral versus empty capsule, same subject): No significant effect
- GLP-1 blood level (GLP-1; blood sample at 1:30, 200 mg capsule at 10:30 A, meal at 2 P): 9 pM
- GLP-1 blood level (GLP-1; blood sample at 2:30, 200 mg capsule at 10:30 A, meal at 2 P): 8 pM
- GLP-1 blood level (GLP-1; blood sample at 3:00, 200 mg capsule at 10:30 A, meal at 2 P): 8 pM
- GLP-1 blood level (GLP-1; blood sample at 3:30, 200 mg capsule at 10:30 A, meal at 2 P): 6 pM
- GLP-1 blood level (GLP-1; blood sample at 4:30, 200 mg capsule at 10:30 A, meal at 2 P): 5 pM
- GLP-1 blood level (GLP-1; blood sample at 5:30, 200 mg capsule at 10:30 A, meal at 2 P): 3 pM
- GLP-1 blood level (GLP-1; blood sample at 10 (before 200 mg capsule at 10:30 A), total immunoreactive GLP-1): 6 pM
- GLP-1 blood level (GLP-1; blood sample at 11:30, 200 mg capsule at 10:30 A, meal at 2 P): 4 pM
- GLP-1 blood level (GLP-1; blood sample at 11, 200 mg capsule at 10:30 A, meal at 2 P): 5 pM
- GLP-1 blood level (GLP-1; blood sample at 12:30, 200 mg capsule at 10:30 A, meal at 2 P): 10 pM
- amount of alpha-synuclein membrane bound with increasing squalamine ([4]; lipid 2.4 mM, alpha-synuclein 10 μM, squalamine in 40 μM increments): linear decrease
- effect on circular dichroism spectrum of alpha-synuclein alone ([4]; no vesicles): no effect

From patent US10975116B2, “Methods of treating and preventing gastrointestinal motility disorders using aminosterols” (Enterin, Inc., priority 2013, dated 2021)
